Measurements from US7402603B2, “Cyclooxygenase-2 inhibitor/histone deacetylase inhibitor combination” (Novartis AG, priority 2001, dated 2008).

Tests used:
intestinal polyps = experiment: mouse model of adenomatous polyposis, prevention and treatment of intestinal polyps; type: in vivo; conditions: COX 125 ppm in feed ad libitum, HDAI 10 mg/kg i.v. 3x/wk for three weeks
Method: 5-methyl-2-(2′-chloro-6′-fluoro-anilino)-phenyl acetic acid (alternatively named [2-(2′-chloro-6′-fluoro-phenylamino)-5-methyl-phenyl]acetic acid; for the preparation see Example 1) (“COX”) and N-hydroxy-3-[4-[[(2-hydroxyethyl)[2-(1H-indol-3-yl)ethyl]-amino]methyl]phenyl]-2E-2-propenamide (alternatively named (E)-N-Hydroxy-3-[4-({(2-hydroxy-ethyl)-[2-(1H-indol-3-yl)-ethyl]-amino}-methyl)-phenyl]-acrylamide; for the preparation see Example 3) (“HDAI”) are tested as single agents and together as combination therapy in a mouse model of adenomatous polyposis for the prevention and treatment of intestinal polyps. HDAI is administered intravenously to the mice at 10 mg/kg in a 5% (w/v) dextrose in water solution, q.d., 3 times per week for three weeks. COX is administered as a dietary admixture at a concentration of 125 ppm. % T/C is the quotient of the mean number of polyps in the treated mice divided by the mean number of polyps in the control mice times 100. The following results of duplicate experiments are observed:
Both agents alone cause a statistically significant reduction in the number of newly formed intestinal polyps. […] Statistical evaluations are performed using a one tailed Student t-test and all p values are less than 0.01.

[1] = body weight change and deaths in the mouse model of adenomatous polyposis; type: in vivo; conditions: COX 125 ppm in feed ad libitum, HDAI 10 mg/kg i.v. 3x/wk for three weeks
Method: 5-methyl-2-(2′-chloro-6′-fluoro-anilino)-phenyl acetic acid (alternatively named [2-(2′-chloro-6′-fluoro-phenylamino)-5-methyl-phenyl]acetic acid; for the preparation see Example 1) (“COX”) and N-hydroxy-3-[4-[[(2-hydroxyethyl)[2-(1H-indol-3-yl)ethyl]-amino]methyl]phenyl]-2E-2-propenamide (alternatively named (E)-N-Hydroxy-3-[4-({(2-hydroxy-ethyl)-[2-(1H-indol-3-yl)-ethyl]-amino}-methyl)-phenyl]-acrylamide; for the preparation see Example 3) (“HDAI”) are tested as single agents and together as combination therapy in a mouse model of adenomatous polyposis for the prevention and treatment of intestinal polyps. HDAI is administered intravenously to the mice at 10 mg/kg in a 5% (w/v) dextrose in water solution, q.d., 3 times per week for three weeks. COX is administered as a dietary admixture at a concentration of 125 ppm. % T/C is the quotient of the mean number of polyps in the treated mice divided by the mean number of polyps in the control mice times 100. The following results of duplicate experiments are observed: […]

[2] = second of duplicate experiments

Row | SMILES | % T/C (mean number of polyps treated / control x 100) (intestinal polyps; first of duplicate experiments) | Mean Intestinal Polyp Count (# ± SEM) (intestinal polyps; first of duplicate experiments) | % T/C (mean number of polyps treated / control x 100) (intestinal polyps; [2]) | Mean Intestinal Polyp Count (# ± SEM) (intestinal polyps; [2]) | % Body Wt. Change ([1]; first of duplicate experiments) | Dead/Total animals ([1]; first of duplicate experiments) | % Body Wt. Change [1, 2] | Dead/Total animals [1, 2]
1 | Cc1ccc(Nc2c(F)cccc2Cl)c(CC(=O)O)c1 [COX, 5-methyl-2-(2′-chloro-6′-fluoro-anilino)-phenyl acetic acid] | 60% | 14 ± 0.7 # | 46% | 12 ± 0.3 # | +10 ± 0.1% | 0/7 | +8.1 ± 0.2% | 0/7
2 | O=C(/C=C/c1ccc(CN(CCO)CCc2c[nH]c3ccccc23)cc1)NO [HDAI, N-hydroxy-3-[4-[[(2-hydroxyethyl)[2-(1H-indol-3-yl)ethyl]-amino]methyl]phenyl]-2E-2-propenamide] | 52% | 12 ± 0.57 # | 57% | 15 ± 0.3 # | +3.5 ± 0.1% | 0/7 | +9.6 ± 0.1% | 0/7
